US7064139B2, “Method for treating retroviral infections” (Uniroyal Chemical Company, Inc., priority 2001, dated 2006)
≈ marks a conversion by molar mass, not a printed value.

tested on: HIV-2 (ROD); experiment: Inhibition of HIV-2 syncytium formation in CEM cells; assay type: cell-based; settings: CEM cells, syncytium formation, day four post infection
Outline: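 Human T-lymphoblast CEM cells, suspended at roughly 300,000 cells per ml of culture medium, were infected with about 100 CCID50 of HIV-2 (ROD). Aliquots of 100 μl of infected cells were placed in 200 μl microtiter wells holding 100 μl of serial 5-fold compound dilutions, and syncytium formation was scored microscopically four days after infection.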

In the case of `Cc1ccc[n+]([O-])c1SCc1c(Cl)cccc1Cl` [Compound 137], the “EC50 (ug/ml) HIV-2” value was >20.00 µg/mL.
For `Cc1ccc2ccccc2c1CS(=O)(=O)c1cccc[n+]1[O-]` [Compound 43], the “EC50 (ug/ml) HIV-2” value was “≧4 ug/ml”.
With `Cc1ccc(C)c(C(C)[S+]([O-])c2cccc[n+]2[O-])c1` (stereo not shown) [Compound 103] the “EC50 (ug/ml) HIV-2” value was >0.8 µg/mL.
With `Cc1ccc(C)c(CSc2ccccn2)c1.Cl` [Compound 157] the “EC50 (ug/ml) HIV-2” value was “≧20 ug/ml”.
In the case of `[O-][n+]1cc(Cl)ccc1SCc1ccccc1` [Compound 151], the “EC50 (ug/ml) HIV-2” value was >20.00 µg/mL.

Point of comparison: `Cc1ccc(C)c(CS(=O)(=O)c2cccc[n+]2[O-])c1C` [Compound 41], “EC50 (ug/ml) HIV-2” value 4.7 µg/mL (≈ 16.1 µM). Against it:
- Cc1ccc(N)cc1C(C)S(=O)(=O)c1cccc[n+]1[O-] (stereo not shown) [Compound 1] — 8.7-fold higher, 41.0 µg/mL (≈ 140 µM)
- Cc1ccc(CS(=O)(=O)c2cccc[n+]2[O-])cc1[N+](=O)[O-] [Compound 67] — 2-fold lower, 2.4 µg/mL (≈ 7.78 µM)
- O=[N+]([O-])c1ccc(CS(=O)(=O)c2cccc[n+]2[O-])c(Cl)c1 [Compound 69] — 1.6-fold lower, 2.9 µg/mL (≈ 8.82 µM)

same assay, conditions: Human immunodeficiency virus 2, CCRF-CEM; CEM cells, syncytium formation, day four post infection; read-out: EC50 (ug/ml) HIV-2

Point of comparison: `Cc1ccccc1CS(=O)(=O)c1cccc[n+]1[O-]` [Compound 16, 2-(2-Methylphenylmethylsulfonyl)-pyridine N-oxide], EC50 7.5 µg/mL (≈ 28.5 µM). Against it:
- O=S(=O)(c1ccc(Cl)c[n+]1[O-])C(Cl)c1ccccc1 (stereo not shown) [Compound 114, 2-(Phenylchloromethylsulfonyl)-5-chloropyridine N-oxide] — not separable, > 0.8 µg/mL
- CCc1cccc2c(C)cc(S(=O)(=O)C(C)c3ccccc3)nc12 (stereo not shown) [Compound 107, 8-ethyl-4-methyl-2-[(1-phenylethyl)sulfonyl]-quinoline] — higher, > 100 µg/mL

same assay, conditions: protection of CEM cells against virus-induced cytopathicity at the concentration in the previous column

Point of comparison: `Cc1ccc(C)c(CSc2ccccn2)c1.Cl` [Compound 157], “HIV-2 % Protection” value 37.5%. Against it:
- Cc1ccc[n+]([O-])c1SCc1c(Cl)cccc1Cl [Compound 137] — lower, 0.0%
- Cc1ccc2ccccc2c1CS(=O)(=O)c1cccc[n+]1[O-] [Compound 43] — the same, 37.5%
- Cc1ccc(C)c(C(C)[S+]([O-])c2cccc[n+]2[O-])c1 (stereo not shown) [Compound 103] — lower, 0.0%
- O=S(=O)(c1ccc(Cl)c[n+]1[O-])C(Cl)c1ccccc1 (stereo not shown) [Compound 114, 2-(Phenylchloromethylsulfonyl)-5-chloropyridine N-oxide] — lower, 0.0%
- [O-][n+]1cc(Cl)ccc1SCc1ccccc1 [Compound 151] — lower, 0.0%

tested on: HIV-1 (IIIB); experiment: microbe, parasite or virus in culture; assay type: cell-based; settings: CEM cells, syncytium formation, day four post infection
Outline: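 Human T-lymphoblast CEM cells at roughly 300,000 cells per ml were infected with about 100 CCID50 of HIV-1 (IIIB). Then 100 μl of the infected suspension went into 200 μl microtiter wells holding 100 μl of 5-fold serial compound dilutions. Inhibition of syncytium formation was scored microscopically on day four post infection, and protection against virus-induced cytopathicity was recorded.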

With `Cc1ccc[n+]([O-])c1SCc1c(Cl)cccc1Cl` [Compound 137] the “EC50 (ug/ml) HIV-1” value was >20 µg/mL.
In the case of `Cc1ccc2ccccc2c1CS(=O)(=O)c1cccc[n+]1[O-]` [Compound 43], the “EC50 (ug/ml) HIV-1” value was “≧4 ug/ml”.
For `Cc1ccc(C)c(C(C)[S+]([O-])c2cccc[n+]2[O-])c1` (stereo not shown) [Compound 103], the “EC50 (ug/ml) HIV-1” value was “>.8 µg/mL”.
With `[O-][n+]1cc(Cl)ccc1SCc1ccccc1` [Compound 151] the “EC50 (ug/ml) HIV-1” value was >20 µg/mL.

Point of comparison: `O=[N+]([O-])c1ccc(CS(=O)(=O)c2cccc[n+]2[O-])c(Cl)c1` [Compound 69], “EC50 (ug/ml) HIV-1” value 2.90 µg/mL (≈ 8.82 µM). Against it:
- Cc1ccc(N)cc1C(C)S(=O)(=O)c1cccc[n+]1[O-] (stereo not shown) [Compound 1] — 6.9-fold higher, 20.00 µg/mL (≈ 68.4 µM)
- Cc1ccc(C)c(CS(=O)(=O)c2cccc[n+]2[O-])c1C [Compound 41] — 1.7-fold higher, 5.00 µg/mL (≈ 17.2 µM)
- Cc1ccc(CS(=O)(=O)c2cccc[n+]2[O-])cc1[N+](=O)[O-] [Compound 67] — within 1.5-fold, 2.30 µg/mL (≈ 7.46 µM)
- Cc1ccc(C)c(CSc2ccccn2)c1.Cl [Compound 157] — 2.1-fold higher, 6.00 µg/mL

same assay, conditions: Human immunodeficiency virus 1, IIIB, CCRF-CEM; CEM cells, syncytium formation, day four post infection; read-out: EC50 (ug/ml) HIV-1

Point of comparison: `Cc1ccccc1CS(=O)(=O)c1cccc[n+]1[O-]` [Compound 16, 2-(2-Methylphenylmethylsulfonyl)-pyridine N-oxide], EC50 11 µg/mL (≈ 41.8 µM). Against it:
- O=S(=O)(c1ccc(Cl)c[n+]1[O-])C(Cl)c1ccccc1 (stereo not shown) [Compound 114, 2-(Phenylchloromethylsulfonyl)-5-chloropyridine N-oxide] — not separable, > 0.8 µg/mL
- CCc1cccc2c(C)cc(S(=O)(=O)C(C)c3ccccc3)nc12 (stereo not shown) [Compound 107, 8-ethyl-4-methyl-2-[(1-phenylethyl)sulfonyl]-quinoline] — 17-fold lower, 0.65 µg/mL (≈ 1.91 µM)

same assay, conditions: protection of CEM cells against virus-induced cytopathicity at the concentration in the previous column

Point of comparison: `[O-][n+]1cc(Cl)ccc1SCc1ccccc1` [Compound 151], “HIV-1 % Protection” value 0.0%. Against it:
- Cc1ccc[n+]([O-])c1SCc1c(Cl)cccc1Cl [Compound 137] — the same, 0.0%
- Cc1ccc2ccccc2c1CS(=O)(=O)c1cccc[n+]1[O-] [Compound 43] — higher, 37.5%
- Cc1ccc(C)c(C(C)[S+]([O-])c2cccc[n+]2[O-])c1 (stereo not shown) [Compound 103] — the same, 0.0%
- O=S(=O)(c1ccc(Cl)c[n+]1[O-])C(Cl)c1ccccc1 (stereo not shown) [Compound 114, 2-(Phenylchloromethylsulfonyl)-5-chloropyridine N-oxide] — the same, 0.0%

tested on: Davis strain CMV; experiment: Reduction of CMV-induced cytopathicity in HEL cells; assay type: cell-based, human cytomegalovirus (HCMV); settings: HEL cells, estimate of percent protection at the concentration in the previous column
Outline: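 Confluent HEL cells were infected with 100 PFU/well CMV for 1–2 h, then washed and kept in MEM with 2% FCS and test compound. EC50 is the concentration cutting virus-induced cytopathicity by 50% versus untreated control at day 7. Where cytotoxicity interfered, percent protection at the stated concentration is given.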

Point of comparison: `O=[N+]([O-])c1ccc(CS(=O)(=O)c2cccc[n+]2[O-])c(Cl)c1` [Compound 69], “Antiviral % Inhibition Davis strain CMV” value 20.0%. Against it:
- Cc1ccc(N)cc1C(C)S(=O)(=O)c1cccc[n+]1[O-] (stereo not shown) [Compound 1] — lower, 0.0%
- Cc1ccc2ccccc2c1CS(=O)(=O)c1cccc[n+]1[O-] [Compound 43] — the same, 20.0%
- O=S(=O)(c1ccc(Cl)c[n+]1[O-])C(Cl)c1ccccc1 (stereo not shown) [Compound 114, 2-(Phenylchloromethylsulfonyl)-5-chloropyridine N-oxide] — the same, 20.0%
- Cc1ccc(CS(=O)(=O)c2cccc[n+]2[O-])cc1[N+](=O)[O-] [Compound 67] — the same, 20.0%
- Cc1ccc(C)c(CSc2ccccn2)c1.Cl [Compound 157] — lower, 0.0%
- CCc1cccc2c(C)cc(S(=O)(=O)C(C)c3ccccc3)nc12 (stereo not shown) [Compound 107, 8-ethyl-4-methyl-2-[(1-phenylethyl)sulfonyl]-quinoline] — lower, 0.0%
- [O-][n+]1cc(Cl)ccc1SCc1ccccc1 [Compound 151] — the same, 20.0%

same assay, conditions: HEL cells, virus-induced cytopathicity after seven days

Point of comparison: `Cc1ccc(C)c(CS(=O)(=O)c2cccc[n+]2[O-])c1C` [Compound 41], “Antiviral EC50 (ug/ml) Davis strain CMV” value 8.6 µg/mL. Against it:
- Cc1ccc[n+]([O-])c1SCc1c(Cl)cccc1Cl [Compound 137] — 3.3-fold higher, 28.0 µg/mL
- Cc1ccc(C)c(C(C)[S+]([O-])c2cccc[n+]2[O-])c1 (stereo not shown) [Compound 103] — 2-fold lower, 4.3 µg/mL

With `Cc1ccc(N)cc1C(C)S(=O)(=O)c1cccc[n+]1[O-]` (stereo not shown) [Compound 1] the “Antiviral EC50 (ug/ml) Davis strain CMV” value was >50 µg/mL.
`Cc1ccc2ccccc2c1CS(=O)(=O)c1cccc[n+]1[O-]` [Compound 43] was tested, and the “Antiviral EC50 (ug/ml) Davis strain CMV” value was >50 µg/mL.
For `Cc1ccc(CS(=O)(=O)c2cccc[n+]2[O-])cc1[N+](=O)[O-]` [Compound 67], the “Antiviral EC50 (ug/ml) Davis strain CMV” value was >50 µg/mL.
With `Cc1ccc(C)c(CSc2ccccn2)c1.Cl` [Compound 157] the “Antiviral EC50 (ug/ml) Davis strain CMV” value was >50 µg/mL.
In the case of `[O-][n+]1cc(Cl)ccc1SCc1ccccc1` [Compound 151], the “Antiviral EC50 (ug/ml) Davis strain CMV” value was >20 µg/mL.
With `O=[N+]([O-])c1ccc(CS(=O)(=O)c2cccc[n+]2[O-])c(Cl)c1` [Compound 69] the “Antiviral EC50 (ug/ml) Davis strain CMV” value was >5 µg/mL.

same assay, conditions: Human betaherpesvirus 5, 168 h; HEL cells, virus-induced cytopathicity after seven days; read-out: Antiviral EC50 (ug/ml) Davis strain CMV

Point of comparison: `Cc1ccccc1CS(=O)(=O)c1cccc[n+]1[O-]` [Compound 16, 2-(2-Methylphenylmethylsulfonyl)-pyridine N-oxide], EC50 12 µg/mL (≈ 45.6 µM). Against it:
- O=S(=O)(c1ccc(Cl)c[n+]1[O-])C(Cl)c1ccccc1 (stereo not shown) [Compound 114, 2-(Phenylchloromethylsulfonyl)-5-chloropyridine N-oxide] — higher, > 20 µg/mL
- CCc1cccc2c(C)cc(S(=O)(=O)C(C)c3ccccc3)nc12 (stereo not shown) [Compound 107, 8-ethyl-4-methyl-2-[(1-phenylethyl)sulfonyl]-quinoline] — higher, > 20 µg/mL
